Data as given in patent publication US11903944B1, “Experimental model using pazopanib-induced cardiotoxicity” (KING FAISAL UNIVERSITY, priority 2023, dated 2024).

How the values were obtained:
Assay type in all cases: in vivo, Male Sprague Dawley rats
[1] = Electrocardiogram (ECG) recording for arrhythmia identification, experimental animal model for arrhythmia; details: 100 mg/kg orally single dose, after 3 hours
Description: (§1) This experimental protocol was permitted by the Institutional Animal Care and Use Committee of King Faisal University. All the experiments were executed in harmony with the relevant procedures and regulations of the Ethical Conduct for the Use of Animals in Research at King Faisal University. Male Sprague Dawley rats weighing 150-200 g were purchased and accommodated in polypropylene cages and upheld at 27±2° C. under a 12 h light/dark sequence. Rats were kept and observed for 1 week in the animal house. The animals were fed with standard rat feed and allowed water ad libitum.
(§2) Animals were distributed into 5 groups, each group containing 6 rats (n=6). Group 1 is the control group in which animals were injected with normal saline intraperitoneally (IP). Group 2: The animals were treated with Pazopanib 30 mg/kg twice daily orally for 14 days to induce hypertension. This group represents the “Experimental animal model for hypertension.” Group 3: The animals were treated with Pazopanib 100 mg/kg orally as a single dose. This group represents the “Experimental animal model for arrhythmia.” Group 4: The animals were treated with Pazopanib 300 mg/kg/day orally for 21 days. This group represents the “Experimental animal model for Cardiac toxicity (oral)” Group 5: The animals were treated with Pazopanib 21 mg/kg/day intraperitoneally (IP) for 30 days. This group represents the “Experimental animal model for Cardiac toxicity (IP)”
At the end of the experiments, urethane-anaesthetized rats (1.5 g/kg) were placed in a prone position on a board, and an ECG was continuously recorded using noninvasive computerized ECG apparatus from Kent Scientific (Torrington, CT, USA). Heart rate, ST segment, P wave, QT, P-R and R-R intervals, and QRS complex were calculated from ECG recordings electronically.
(§3) Data were expressed as mean±standard error of the mean (SEM) for six animals (n=6) in each group. Statistically significant differences between the groups were determined using one-way ANOVA followed by Tukey's test as a post-hoc analysis. In all cases, probability values of p<0.05 were taken as statistically significant.

[2] = test system: Toll-Like Receptors 4 (TLR4) gene expressions; assay: TLR4 gene expression in cardiac tissue by real-time quantitative PCR
Description: as §1
Animals were distributed into 5 groups, each group containing 6 rats (n=6). Group 1 is the control group in which animals were injected with normal saline intraperitoneally (IP). Group 2: The animals were treated with Pazopanib 30 mg/kg twice daily orally for 14 days to induce hypertension. This group represents the “Experimental animal model for hypertension.” Group 3: The animals were treated with Pazopanib 100 mg/kg orally as a single dose. […] This group represents the “Experimental animal model for Cardiac toxicity (IP)”
Blood samples were collected, and centrifuged (10 min/4000 rpm) to separate serum which was then stored in a −80° C. for biochemical analysis. […]
Total RNA was extracted from the cardiac tissue samples according to the Trizol kit instructions. […] The TLR4 primer (5′-[…]-3′ (SEQ ID NO: 1), 3′-[…]-5′ (SEQ ID NO: 2)), TLR2 (5′-[…]-3′ (SEQ ID NO: 3), 3′-[…]-5′ (SEQ ID NO: 4)), MYD88 (5′-[…]-3′ (SEQ ID NO: 5), 3′-[…]-5′ (SEQ ID NO: 6)) were used to detect and quantify related genes in the cDNA using Real-time quantitative PCR. In a 25 μL reaction volume, PCR was performed as follows: initial denaturation for 4 min at 94° C., followed by denaturation for 30 s at 94° C., annealing for 30 s at 62° C., and extension for 2 min at 72° C. for 35 cycles, and final extension for 10 min at 72° C. qPCR was applied using SYBR ExScript RT-PCR kit, and quantification examinations were accomplished via an Opticon-2 Real-time PCR reactor (MJ Research, Capital Court, Reno, NV, USA). qPCR results were obtained using Step PE Applied Biosystems (Waltham, MA, USA) software. Relative gene expression data were calculated using the (2-ΔΔCq2) method and presented as a fold change. Target gene expressions were assessed and related to the internal reference β-actin gene using the primer (5′-ATCCTGCGTCTGGACCTGG-3′ (SEQ ID NO: 7), 5′-[…]-3′ (SEQ ID NO: 8)), and the results were presented in the figures as relative expressions.
(§4) Data were expressed as mean±standard error of the mean (SEM) for six animals (n=6) in each group. Statistically significant differences between the groups were determined using one-way ANOVA followed by Tukey's test as a post-hoc analysis. […]

[3] = Cardiac toxicity identification: serum cardiac marker levels by ELISA; details: compared with normal rats, p<0.05
Description: as §1
Animals were distributed into 5 groups, each group containing 6 rats (n=6). Group 1 is the control group in which animals were injected with normal saline intraperitoneally (IP). Group 2: The animals were treated with Pazopanib 30 mg/kg twice daily orally for 14 days to induce hypertension. This group represents the “Experimental animal model for hypertension.” Group 3: The animals were treated with Pazopanib 100 mg/kg orally as a single dose. This group represents the “Experimental animal model for arrhythmia.” Group 4: The animals were treated with Pazopanib 300 mg/kg/day orally for 21 days. […] This group represents the “Experimental animal model for Cardiac toxicity (IP)”
Blood samples were collected, and centrifuged (10 min/4000 rpm) to separate serum which was then stored in a −80° C. for biochemical analysis. Thereafter, the anaesthetized animals were sacrificed, and the hearts of different investigational groups were separated, and stored in a −80° C. for subsequent biochemical parameters determination.
ELISA kits, following the manufacturer's instructions, were used to measure serum cardiac marker levels of CPK, CK-MB, cTnT, cTnI and LDH.
as §3

[4] = Blood pressure recording, noninvasive tail-cuff system, experimental animal model for hypertension; details: 30 mg/kg twice daily orally for 14 days; compared to normal animals
Description: as §1, §2
Blood pressure measurements were performed using a noninvasive computerized tail-cuff system from Emka Technologies' Systems (Paris, France), which involved placing a cuff on the animal's tail to occlude the blood flow. The pressure was raised and then slowly released. The cuff pressure when the pulse signal reappears is intended as the systolic pressure. […]
as §4

[5] = 30 mg/kg/day intraperitoneally (IP) for 21 days
[6] = 300 mg/kg/day orally for 21 days

Q: Which P-R interval [1] does the source give for `Cc1ccc(Nc2nccc(N(C)c3ccc4c(C)n(C)nc4c3)n2)cc1S(N)(=O)=O` [Pazopanib] here?
A: shortening

Q: What about the R-R interval [1] of the same compound?
A: shortening

Q: What about the p wave duration [1] of the same compound?
A: shortening

Q: And the “QRS interval (QRS complex duration)” value ([1]; compared to control, p<0.05)?
A: prolongation

Q: What about the QT interval ([1]; compared to control, p<0.05) of the same compound?
A: prolongation

Q: What about the ST segment amplitude ([1]; compared to control, p<0.05) of the same compound?
A: elevation

Q: And the TLR4 gene expression ([2]; arrhythmia model: 100 mg/kg orally as a single dose)?
A: significantly increased

Q: And the TLR4 gene expression ([2]; cardiotoxicity model: 30 mg/kg/day intraperitoneally (IP) for 30 days)?
A: significantly increased

Q: What about the TLR4 gene expression ([2]; cardiotoxicity model: 300 mg/kg/day orally for 30 days) of the same compound?
A: significantly increased

Q: And the TLR4 gene expression ([2]; hypertension model: 30 mg/kg twice daily orally for 14 days)?
A: significantly increased

Q: And the “serum cardiac troponin I (cTnI)” value [3, 5]?
A: augmented

Q: And the “serum cardiac troponin T (cTnT)” value [3, 5]?
A: augmented

Q: And the “serum creatine kinase-myocardial bound (CK-MB)” value [3, 5]?
A: augmented

Q: And the “serum creatine phosphokinase (CPK)” value [3, 5]?
A: augmented

Q: What about the “serum lactate dehydrogenase (LDH)” value [3, 5] of the same compound?
A: augmented

Q: What about the “serum cardiac troponin I (cTnI)” value [3, 6] of the same compound?
A: augmented

Q: And the “serum cardiac troponin T (cTnT)” value [3, 6]?
A: augmented

Q: And the “serum creatine kinase-myocardial bound (CK-MB)” value [3, 6]?
A: augmented

Q: And the “serum creatine phosphokinase (CPK)” value [3, 6]?
A: augmented

Q: What about the “serum lactate dehydrogenase (LDH)” value [3, 6] of the same compound?
A: augmented

Q: What about the diastolic blood pressure [4] of the same compound?
A: elevated

Q: And the mean blood pressure [4]?
A: elevated

Q: And the systolic blood pressure [4]?
A: elevated
